Experimental data from publication PMC4605435 (Journal of medicinal chemistry, 2015).
Structures can show the parent of a compound that is named as a salt. Each block holds one compound with its values, some of them ahead of it.

Columns and labels:
ACK1 [1] = molecular target: T1, ACK1 (Homo sapiens, UniProt Q07912); experiment: ELISA-based ACK1 kinase inhibition; format: biochemical; conditions: for ACK1 inhibition in ELISA: 10 μM; for inhibition at 10 µM: read-out: % Inhibition @ 10 μM (ELISA)
ACK1 [2] = molecular target: T1, ACK1; experiment: 33P HotSpot assay; format: biochemical; conditions: IC50 (33P Hotspot assay)
[3] = standards; cited from earlier work
ACK1 autophosphorylation = conditions: read-out: IC50 inhibition of ACK1 autophosphorylation in intact cells; cited from earlier work
A549 lung cancer cells = conditions: at 10 μM; cited from earlier work
VCaP cells = experiment: Cell growth, viable cells by trypan blue exclusion, VCaP; format: cell-based; conditions: Homo sapiens, 72 h, read-out: IC50 cell growth VCaP
[4] = molecular target: ACK1 Tyr284 phosphorylation in LAPC4 cells (Homo sapiens, UniProt Q07912); experiment: ACK1 Tyr284 autophosphorylation by immunoblotting in EGF-treated LAPC4 cells; format: cell-based; conditions: 5 μM, immunoblot (Figure 3a)
[5] = In vitro human plasma stability by HPLC; format: in vitro ADME; conditions: for stability in human plasma: up to 24 h, HPLC
ALK = ALK (Homo sapiens, UniProt Q9UM73); experiment: 33P HotSpot kinase profiling, ALK; format: biochemical; conditions: ALK vs ACK1
LNCaP cells = experiment: Cell growth, viable cells by trypan blue exclusion, LNCaP; format: cell-based; conditions: Homo sapiens, 72 h, read-out: IC50 cell growth LNCaP

T1 sequence (Q07912 whole entry): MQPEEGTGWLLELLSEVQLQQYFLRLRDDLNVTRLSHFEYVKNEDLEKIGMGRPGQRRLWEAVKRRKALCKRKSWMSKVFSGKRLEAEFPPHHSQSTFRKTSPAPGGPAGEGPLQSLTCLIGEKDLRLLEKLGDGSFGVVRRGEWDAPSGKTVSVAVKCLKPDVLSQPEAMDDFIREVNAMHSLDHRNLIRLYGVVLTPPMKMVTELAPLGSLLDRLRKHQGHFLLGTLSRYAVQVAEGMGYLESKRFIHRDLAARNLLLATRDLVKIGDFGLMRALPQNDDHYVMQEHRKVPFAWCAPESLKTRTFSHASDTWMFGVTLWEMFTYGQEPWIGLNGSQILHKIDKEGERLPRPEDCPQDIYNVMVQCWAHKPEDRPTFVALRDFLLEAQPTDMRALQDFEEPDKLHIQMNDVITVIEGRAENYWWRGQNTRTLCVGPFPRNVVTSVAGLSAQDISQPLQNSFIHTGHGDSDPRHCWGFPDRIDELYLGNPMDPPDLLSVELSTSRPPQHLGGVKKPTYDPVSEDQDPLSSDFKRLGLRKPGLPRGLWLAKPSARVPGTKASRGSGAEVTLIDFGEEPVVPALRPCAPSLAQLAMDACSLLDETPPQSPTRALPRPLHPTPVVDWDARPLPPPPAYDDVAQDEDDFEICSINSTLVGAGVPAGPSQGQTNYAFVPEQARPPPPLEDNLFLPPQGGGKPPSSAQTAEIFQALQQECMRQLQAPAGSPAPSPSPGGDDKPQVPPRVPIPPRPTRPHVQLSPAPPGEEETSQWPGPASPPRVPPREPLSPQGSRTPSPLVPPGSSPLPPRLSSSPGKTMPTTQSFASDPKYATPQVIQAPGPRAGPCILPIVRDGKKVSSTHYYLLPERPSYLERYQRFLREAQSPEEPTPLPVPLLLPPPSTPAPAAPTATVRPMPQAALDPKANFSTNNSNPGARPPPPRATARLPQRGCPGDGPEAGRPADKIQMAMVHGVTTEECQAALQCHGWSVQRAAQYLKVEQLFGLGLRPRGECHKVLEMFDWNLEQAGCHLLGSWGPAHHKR
Sequence of ACK1 Tyr284 phosphorylation in LAPC4 cells (Q07912 whole entry): as above
Sequence of ALK (Q9UM73 19-1620): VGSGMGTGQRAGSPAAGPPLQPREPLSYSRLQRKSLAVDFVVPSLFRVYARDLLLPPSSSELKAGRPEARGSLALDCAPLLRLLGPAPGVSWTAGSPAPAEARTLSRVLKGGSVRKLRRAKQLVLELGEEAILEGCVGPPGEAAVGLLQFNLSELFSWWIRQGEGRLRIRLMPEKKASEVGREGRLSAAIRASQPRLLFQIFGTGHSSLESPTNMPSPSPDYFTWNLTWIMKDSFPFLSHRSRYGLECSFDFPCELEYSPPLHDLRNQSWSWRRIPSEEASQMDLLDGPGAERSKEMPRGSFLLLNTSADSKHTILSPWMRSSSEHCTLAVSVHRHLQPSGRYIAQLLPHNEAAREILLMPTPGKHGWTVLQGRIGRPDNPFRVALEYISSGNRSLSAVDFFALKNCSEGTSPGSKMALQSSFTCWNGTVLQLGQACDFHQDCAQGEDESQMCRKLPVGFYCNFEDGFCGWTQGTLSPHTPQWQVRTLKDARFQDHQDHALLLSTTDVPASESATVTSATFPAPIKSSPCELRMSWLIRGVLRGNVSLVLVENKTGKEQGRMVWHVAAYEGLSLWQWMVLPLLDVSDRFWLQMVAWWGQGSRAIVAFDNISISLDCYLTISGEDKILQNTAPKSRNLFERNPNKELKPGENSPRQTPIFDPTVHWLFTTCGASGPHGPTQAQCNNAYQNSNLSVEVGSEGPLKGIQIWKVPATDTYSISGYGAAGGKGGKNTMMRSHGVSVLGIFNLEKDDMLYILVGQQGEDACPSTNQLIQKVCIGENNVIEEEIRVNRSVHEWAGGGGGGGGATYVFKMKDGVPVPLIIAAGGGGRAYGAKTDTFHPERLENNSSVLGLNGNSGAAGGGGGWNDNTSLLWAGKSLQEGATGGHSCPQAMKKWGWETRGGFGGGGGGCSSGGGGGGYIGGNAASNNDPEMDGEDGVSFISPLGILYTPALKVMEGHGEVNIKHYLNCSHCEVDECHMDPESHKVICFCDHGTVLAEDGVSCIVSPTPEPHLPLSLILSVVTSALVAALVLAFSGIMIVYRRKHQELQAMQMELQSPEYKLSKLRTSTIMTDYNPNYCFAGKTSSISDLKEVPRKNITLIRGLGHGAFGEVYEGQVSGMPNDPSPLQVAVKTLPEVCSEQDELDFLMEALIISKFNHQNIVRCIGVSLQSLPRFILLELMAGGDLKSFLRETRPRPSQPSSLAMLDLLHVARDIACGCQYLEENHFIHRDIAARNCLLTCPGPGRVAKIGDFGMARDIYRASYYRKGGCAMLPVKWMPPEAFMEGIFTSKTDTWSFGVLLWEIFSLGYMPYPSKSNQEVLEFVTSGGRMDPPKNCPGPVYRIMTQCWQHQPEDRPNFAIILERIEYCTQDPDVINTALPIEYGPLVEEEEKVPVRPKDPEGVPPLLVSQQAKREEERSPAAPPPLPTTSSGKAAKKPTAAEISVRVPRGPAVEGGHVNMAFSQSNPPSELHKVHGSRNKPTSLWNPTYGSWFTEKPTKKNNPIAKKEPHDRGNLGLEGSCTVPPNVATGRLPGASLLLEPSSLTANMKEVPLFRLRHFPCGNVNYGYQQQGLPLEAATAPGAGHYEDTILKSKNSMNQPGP

ACK1 inhibition in ELISA (ACK1 [1]): significant ACK1 inhibition
Compound: Cl.O=C(O)CCC(=O)N1CCN(c2ccc(Nc3ncc(Br)c(NCC4CCCO4)n3)cc2)CC1 (stereo not shown) [compound 29]

IC50 (ACK1 [2]): 28 nM | inhibition at 10 µM (ACK1 [1]): 89 ± 5.6%
Compound: O=C(O)CCC(=O)N1CCN(c2ccc(Nc3ncc(C(=O)Nc4c(F)cccc4Cl)c(NCC4CCCO4)n3)cc2)CC1 (stereo not shown) [compound 22, 4-(4-{4-[[5-((2-Chloro-6-fluorophenyl)carbamoyl)-4-(((tetrahydrofuran-2-yl)methyl)amino)pyrimidin-2-yl]amino]phenyl}piperazin-1-yl)-4-oxobutanoic Acid]

Compound: CCN(CC)CCOC(=O)c1ccc(N)cc1 [procaine]
reported stability in human plasma [3]: unstable

ACK1 inhibition in ELISA (ACK1 [1]): moderate ACK1 inhibition
Compound: Cl.O=C(O)Cc1ccc(Nc2ncc(Cl)c(NCC3CCCO3)n2)cc1 (stereo not shown) [compound 23]

Compound: COC(C)(C)CCn1nc(Nc2c(C)cccc2C)c2cnc(Nc3ccccc3)nc21 [2a]
IC50 (ACK1 autophosphorylation): 20 nM

Compound: COc1cc(N2CCN(C)CC2)ccc1Nc1ncc2c(n1)N(C)c1ccccc1C(=O)N2 [compound 3]
A549 lung cancer cell growth (A549 lung cancer cells): inhibits

inhibition at 10 µM (ACK1 [1]): 49 ± 2.8%
Compound: Cc1cnc(NNc2ccc(O)c(F)c2)nc1NCC1CCCO1 (stereo not shown) [9u, 5-Methyl-N^2-[(4-hydroxy-3-fluorophenyl)amino]-N^4-[(tetrahydrofuran-2-yl)methyl]pyrimidine-2,4-diamine Hydrochloride]

Compound: 5-[(2-Chloro-6-fluorophenyl)carbamoyl]-N^2-[(4-methoxyphenyl)amino]-N^4-[(tetrahydrofuran-2-yl)methyl]pyrimidine-2,4-diamine [9q]
% Inhibition @ 10 μM (ELISA) (ACK1 [1]; compound 10 μM, average of three or more determinations): 68 ± 10%

Compound: c1ccc(-c2oc3ncnc(NC[C@@H]4CCCO4)c3c2-c2ccccc2)cc1 [1b]
IC50 (VCaP cells): 4000 nM

ACK1 inhibition in ELISA (ACK1 [1]): moderate ACK1 inhibition
Compound: Cl.O=C(O)CCc1ccc(Nc2ncc(Cl)c(NCC3CCCO3)n2)cc1 (stereo not shown) [compound 24]

ACK1 activation (Tyr284 autophosphorylation) after EGF [4]: significant reduction in ACK1 activation
Compound: COc1cc(N2CCC(N3CCN(C)CC3)CC2)ccc1Nc1ncc(Cl)c(Nc2ccccc2S(=O)(=O)C(C)C)n1 [compound 5, reference compound]

ACK1 activation (Tyr284 autophosphorylation) after EGF [4]: almost complete loss of ACK1 activation | half-life at 250 µM ([5]; human, human plasma): > 6 h | stability in human plasma [5]: stable in human plasma | fold difference of ALK IC50 versus ACK1 IC50 (ALK): 3 fold
Compound: CN1CCN(c2ccc(Nc3ncc(Cl)c(NC[C@H]4CCCO4)n3)cc2)CC1 [(R)-9b, (R)-5-Chloro-N^2-[4-(4-methylpiperazin-1-yl)phenyl]-N^4-[(tetrahydrofuran-2-yl)methyl]pyrimidine-2,4-diamine]

IC50 (LNCaP cells): 1800 nM | ACK1 activation (Tyr284 autophosphorylation) after EGF [4]: almost complete loss of ACK1 activation | stability in human plasma [5]: stable in human plasma
Compound: CN1CCN(c2ccc(Nc3ncc(Cl)c(NC[C@@H]4CCCO4)n3)cc2)CC1 [(S)-9b, (S)-5-Chloro-N^2-[4-(4-methylpiperazin-1-yl)phenyl]-N^4-[(tetrahydrofuran-2-yl)methyl]pyrimidine-2,4-diamine]

ACK1 inhibition in ELISA (ACK1 [1]): moderate ACK1 inhibition
Compound: Cl.O=C(O)CCc1ccc(Nc2ncc(Br)c(NCC3CCCO3)n2)cc1 (stereo not shown) [compound 28]

ACK1 inhibition in ELISA (ACK1 [1]): moderate ACK1 inhibition
Compound: CN(C)CCNC(=O)CCc1ccc(Nc2ncc(Cl)c(NCC3CCCO3)n2)cc1.Cl (stereo not shown) [compound 26]

inhibition at 10 µM (ACK1 [1]): 41 ± 6.3%
Compound: Oc1ccc(NNc2ncc(F)c(NCC3CCCO3)n2)cc1F (stereo not shown) [9t, 5-Fluoro-N^2-[(4-hydroxy-3-fluorophenyl)amino]-N^4-[(tetrahydrofuran-2-yl)methyl]pyrimidine-2,4-diamine Hydrochloride]
